For the test, the system named is pERK in NCI-H358 cells. The test can be described thus: Cell-based pERK HTRF assay (pERK inhibition in H358 cells). Conditions: Homo sapiens, NCI-H358, 0.5 h, pERK inhibition IC50, NCI-H358 cells, 30 min incubation; read-out: PERK in H358 cell. The method, then:
On Day 1, cells (NCI-H358) were seeded into 96-well plates at 4×10^4 cells/well in complete growth media (RPMI, 10% FBS).
The source plate was created with compounds diluted in media at 5-fold the final assay concentration. […] 20 μL was transferred onto the cell plates (final volume in wells was 100 μL). Plates were harvested after 30 min incubation by aspirating media and adding kit-supplied 1× supplemented lysis buffer to all wells (75 μl per well). Plates were then placed on a plate shaker and incubated at 850 rpm for an additional 30 min.
Antibody mixture solution was prepared by diluting aliquoted d2 and Eu Cryptate antibodies 1:20 in kit supplied detection buffer, then mixed the diluted antibodies solutions (1:1 v:v).
Samples were homogenized by pipetting up and down and then transferred (16 μL of cell lysates) from the 96-well cell culture plate to two wells of the HTRF 384-well detection plate containing the antibody solution. Plates were centrifuged (524 g for 1 min) and allowed to incubate between 4 and 24 h at room temperature. Maximum signal is reached after 4 h incubation time and remains stable over a period of 24 hours. Therefore, readings can be made between 4 and 24 h of incubation.
A general note: Time-resolved FRET reads energy transfer from a long-lived donor to a nearby acceptor.

For 41 molecules, IC50 results are on record in patent US12528818B2, “Compositions and methods for inhibition of RAS” (Leidos Biomedical Research, Inc., priority 2021, dated 2026).

A value given as a limit tells only on which side of the number the result lay.

In the case of `C=CC(=O)N1CC(Nc2nc(OCC34CCCN3CCC4)nc3c(F)c(-c4ccc(F)c5sc(N)nc45)c(C(F)(F)F)cc23)C1` [Compound 79], the IC50 was more than 1000 nM. Consider `C=CC(=O)N1CCN(c2nc(OCC34CCCN3CCC4)nc3c(F)c(-c4ccc(F)c5sc(N)nc45)c(C(F)(F)F)cc23)CC1` [Compound 80, 1-(4-(7-(2-amino-7-fluorobenzo[d]thiazol-4-yl)-8-fluoro-2-((tetrahydro-1H-pyrrolizin-7a(5H)-yl)methoxy)-6-(trifluoromethyl)quinazolin-4-yl)piperazin-1-yl)prop-2-en-1-one], for which the IC50 was less than 100 nM.

`C#CC(=O)N1CC(Nc2nc(OC[C@@H]3CCCN3C)nc3c(F)c(-c4ccc(F)c5sc(N)nc45)c(Cl)cc23)C1` [Compound 81]: the IC50 lay within 100 to 1000 nM. `C=CC(=O)N1CCN(c2ncnc3c(F)c(-c4ccc(F)c5sc(N)nc45)c(Cl)c(OC)c23)CC1` [Compound 82]: the IC50 was less than 100 nM. Turning to `C=CC(=O)N1CC(N(C)c2nc(OCC34CCCN3CCC4)nc3c(F)c(-c4ccc(F)c5sc(N)nc45)c(Cl)cc23)C1` [Compound 84, 1-(3-((7-(2-amino-7-fluorobenzo[d]thiazol-4-yl)-6-chloro-8-fluoro-2-((tetrahydro-1H-pyrrolizin-7a(5H)-yl)methoxy)quinazolin-4-yl)(methyl)amino)azetidin-1-yl)prop-2-en-1-one], the IC50 was in the range of 100 to 1000 nM. As for `C=CC(=O)N1CC(Nc2nc(OC[C@@H]3CCCN3C)nc3c(F)c(-c4cccc5oc(N)nc45)c(Cl)cc23)C1` [Compound 88], the IC50 was more than 1000 nM. As for `C=CC(=O)N1CC[C@@H]2[C@H]1CN2c1nc(OC[C@@H]2C[C@@H](F)CN2C)nc2c(F)c(-c3ccc(F)c4sc(N)nc34)c(Cl)cc12` [Compound 89], the figure is less than 100 nM. Consider `C=CC(=O)N1CC(Nc2nc(OC[C@@H]3CCCN3C)nc3c(F)c(-c4ccc(F)c5nc(N)sc45)c(Cl)cc23)C1` [Compound 90], for which the IC50 was more than 1000 nM. `C=CC(=O)N1CC(Nc2nc(OCC34CCCN3CCC4)nc3c(F)c(-c4ccc(F)c5sc(N)nc45)c(CC#N)cc23)C1` [Compound 91, 2-(4-((1-acryloylazetidin-3-yl)amino)-7-(2-amino-7-fluorobenzo[d]thiazol-4-yl)-8-fluoro-2-((tetrahydro-1H-pyrrolizin-7a(5H)-yl)methoxy)quinazolin-6-yl)acetonitrile]: the IC50 was more than 1000 nM. For the molecule `CC#CC(=O)N1CC(Nc2nc(OC[C@@H]3CCCN3C)nc3c(F)c(-c4ccc(F)c5sc(N)nc45)c(Cl)cc23)C1` [Compound 92, 1-[3-[[7-(2-amino-7-fluoro-1,3-benzothiazol-4-yl)-6-chloro-8-fluoro-2-[[(2S)-1-methylpyrrolidin-2-yl]methoxy]quinazolin-4-yl]amino]azetidin-1-yl]but-2-yn-1-one], the IC50 is more than 1000 nM. For `C=CC(=O)N1CC(Nc2nc(OC[C@@H]3CCCN3C)nc3c(F)c(-c4ccc(F)c5sc(N)nc45)c(-c4ccoc4)cc23)C1` [Compound 93], the IC50 is more than 1000 nM. For the molecule `CC#CC(=O)N1CC[C@@H]2[C@H]1CN2c1nc(OCC23CCCN2CCC3)nc2c(F)c(-c3ccc(F)c4sc(N)nc34)c(Cl)cc12` [Compound 118], the IC50 is more than 1000 nM. As for `C=CC(=O)N1CCN(c2nc(OCC34CCCN3CCC4)nc3c(F)c(-c4ccc(F)c5sc(N)nc45)c(-c4ccoc4)cc23)CC1` [Compound 119], the figure is more than 1000 nM.

As to `CC#CC(=O)N1CC[C@@H]2[C@H]1CN2c1nc(OCC23CCCN2CCC3)nc2c(F)c(-c3ccc(F)c4sc(N)nc34)c(-c3ccoc3)cc12` [Compound 120], the IC50 was more than 1000 nM. As for `C=CC(=O)N1CC[C@@H]2[C@H]1CN2c1nc(OCC23CCCN2CCC3)nc2c(F)c(-c3ccc(F)c4sc(N)nc34)c(-c3ccoc3)cc12` [Compound 121], the figure is more than 1000 nM; as for `C=CC(=O)N1CCN(c2ncnc3c(F)c(-c4ccc(F)c5sc(N)nc45)c(C4CCC4)cc23)CC1` [Compound 122], more than 1000 nM; as for `CC#CC(=O)N1CC(N(C)c2nc(OC[C@@H]3CCCN3C)nc3c(F)c(-c4ccc(F)c5sc(N)nc45)c(C(F)(F)F)cc23)C1` [Compound 129], 100 to 1000 nM.

`C=CC(=O)N1CCN(c2nc(OC[C@@H]3CC(F)(F)CN3C)nc3c(F)c(-c4ccc(F)c5sc(N)nc45)c(C(F)(F)F)cc23)CC1` [Compound 131]: the IC50 was less than 100 nM. Consider `CC#CC(=O)N1CCN(c2nc(OC[C@@H]3CC(F)(F)CN3C)nc3c(F)c(-c4ccc(F)c5sc(N)nc45)c(C(F)(F)F)cc23)CC1` [Compound 132], for which the IC50 is more than 1000 nM. As for `CC#CC(=O)N1CCN(c2nc(OCC34CCCN3CCC4)nc3c(F)c(-c4ccc(F)c5sc(N)nc45)c(Cl)cc23)CC1` [Compound 133], the figure is more than 1000 nM. For `CC#CC(=O)N1CCN(c2nc(OCC34CCCN3CCC4)nc3c(F)c(-c4ccc(F)c5sc(N)nc45)c(C(F)(F)F)cc23)CC1` [Compound 134] the value was 100 to 1000 nM; for `C=CC(=O)N1CC[C@@H]2[C@H]1CN2c1nc(OC[C@@H]2C[C@@H](F)CN2C)nc2c(F)c(-c3ccc(F)c4sc(N)nc34)c(C(F)(F)F)cc12` [Compound 138], less than 100 nM. For `C=CC(=O)N1CC(N(CCC#N)c2nc(OC[C@@H]3CCCN3C)nc3c(F)c(-c4ccc(F)c5sc(N)nc45)c(Cl)cc23)C1` [Compound 141] the value was more than 1000 nM; for `CC#CC(=O)N1CCN(c2nc(OC[C@]34CCCN3C[C@H](F)C4)nc3c(F)c(-c4ccc(F)c5sc(N)nc45)c(C(F)(F)F)cc23)CC1` [Compound 149], less than 100 nM; for `C=CC(=O)N1CCN(c2nc(OC[C@]34CCCN3C[C@H](F)C4)nc3c(F)c(-c4ccc(F)c5sc(N)nc45)c(C(F)(F)F)cc23)CC1` [Compound 150], less than 100 nM.

Regarding `C=CC(=O)N1CC(N(c2nc(OCC34CCCN3CCC4)nc3c(F)c(-c4ccc(F)c5sc(N)nc45)c(Cl)cc23)C2CC2)C1` [Compound 151], the IC50 was more than 1000 nM.

Consider `C=CC(=O)N1CC(N(c2nc(OCC34CCCN3CCC4)nc3c(F)c(-c4ccc(F)c5sc(N)nc45)c(C(F)(F)F)cc23)C2CC2)C1` [Compound 152], for which the IC50 was more than 1000 nM. As to `C=CC(=O)N1CCN(c2nc(OC[C@@H]3CCCN3CCF)nc3c(F)c(-c4ccc(F)c5sc(N)nc45)c(C(F)(F)F)cc23)CC1` [Compound 153], the IC50 is less than 100 nM. For the molecule `CC#CC(=O)N1CCN(c2nc(OC[C@@H]3CCCN3CCF)nc3c(F)c(-c4ccc(F)c5sc(N)nc45)c(C(F)(F)F)cc23)CC1` [Compound 154], the IC50 fell in the range of 100 to 1000 nM.

As to `C=CC(=O)N1CCN(c2nc(OC[C@@H]3CCCN3CC(F)F)nc3c(F)c(-c4ccc(F)c5sc(N)nc45)c(C(F)(F)F)cc23)CC1` [Compound 156], the IC50 is less than 100 nM.

Consider `C=CC(=O)N1CC(N(c2nc(OCC3CCCN3C)nc3c(F)c(-c4ccc(F)c5sc(N)nc45)c(Cl)cc23)C(C)C)C1` (centres unmarked) [Compound 159], for which the IC50 was more than 1000 nM. As for `C=CC(=O)N1C2CC1CN(c1nc(OCC34CCCN3CCC4)nc3c(F)c(-c4ccc(F)c5sc(N)nc45)c(Cl)cc13)C2` [Compound 161], the figure is more than 1000 nM. On to `C=CC(=O)N1CCN(c2nc(OCC34CCCN3CCC4)nc3c(F)c(-c4ccc(F)c5oc(N)nc45)c(C(F)(F)F)cc23)CC1` [Compound 162, 1-(4-(7-(2-amino-7-fluorobenzo[d]oxazol-4-yl)-8-fluoro-2-((tetrahydro-1H-pyrrolizin-7a(5H)-yl)methoxy)-6-(trifluoromethyl)quinazolin-4-yl)piperazin-1-yl)prop-2-en-1-one], for which the IC50 was in the range of 100 to 1000 nM.

Regarding `C=CC(=O)N1CCN(c2nc(OC[C@@H]3CCCN3C)nc3c(F)c(-c4ccc(F)c5sc(N)nc45)c(OC(F)(F)F)cc23)CC1` [Compound 163], the IC50 was in the range of 100 to 1000 nM.

Take `C=CC(=O)N1CCN(c2nc(OC[C@]34CCCN3C[C@H](F)C4)nc3c(F)c(-c4ccc(F)c5sc(N)nc45)c(C(F)(F)F)cc23)C[C@@H]1C` [Compound 165]: the IC50 was less than 100 nM. For the molecule `C=CC(=O)N1CC[C@@H]2[C@H]1CN2c1nc(OCC23CCCN2CCC3)nc2c(F)c(-c3ccc(F)c4sc(N)nc34)c(C(F)(F)F)cc12` [Compound 166], the IC50 was 100 to 1000 nM. As for `C=CC(=O)N(C)C1CN(c2nc(OCC34CCCN3CCC4)nc3c(F)c(-c4ccc(F)c5sc(N)nc45)c(Cl)cc23)C1` [Compound 167], the figure is more than 1000 nM. With `C=CC(=O)N1CC(N(C)c2nc(OC[C@]34CCCN3C[C@H](F)C4)nc3c(F)c(-c4ccc(F)c5sc(N)nc45)c(Cl)cc23)C1` [Compound 169], the IC50 lay in the range of 100 to 1000 nM. `CC#CC(=O)N1CCN(c2nc(OCC34CCCN3CC(C)(C)C4)nc3c(F)c(-c4ccc(F)c5sc(N)nc45)c(C(F)(F)F)cc23)CC1` (centres unmarked) [Compound 170]: the IC50 was 100 to 1000 nM. As for `C=CC(=O)N1CCN(c2nc(OCC34CCCN3CC(C)(C)C4)nc3c(F)c(-c4ccc(F)c5sc(N)nc45)c(C(F)(F)F)cc23)CC1` (centres unmarked) [Compound 171, 1-(4-(7-(2-amino-7-fluorobenzo[d]thiazol-4-yl)-2-((2,2-dimethyltetrahydro-1H-pyrrolizin-7a(5H)-yl)methoxy)-8-fluoro-6-(trifluoromethyl)quinazolin-4-yl)piperazin-1-yl)prop-2-en-1-one], the figure is less than 100 nM; as for `CC#CC(=O)N(C)C1CN(c2nc(OCC34CCCN3CCC4)nc3c(F)c(-c4ccc(F)c5sc(N)nc45)c(Cl)cc23)C1` [Compound 172], more than 1000 nM.
